In ChEMBL document CHEMBL1201862, “PubChem BioAssay data set” (2004) one finds EC50, IC50 and AC50 data, which are given here for eight compounds.

pIC50: −log10 of the molar value. The source made the active and inactive calls.

The nature of assay [1]: cells. Format: functional, cell-based. Particulars: HEK-CNG.
Assay [2] addresses COUP transcription factor 2 (Homo sapiens, UniProt P24468). The experiment in a line: Luminescence-based cell-based high throughput dose response assay to identify inhibitors of COUP-TFII (NR2F2). The assay is classed as functional.
The target in the next assay is Galanin receptor type 3 (Homo sapiens, UniProt O60755). Put plainly: Fluorescence-based cell-based primary high throughput dose response assay to identify antagonists of the Galanin Receptor 3 (GalR3). Format: functional.
Assay [3] addresses T1, Corticotropin-releasing factor receptor 2/Corticotropin-releasing factor-binding protein (Homo sapiens, UniProt P24387+Q13324).
T1 sequence (Q13324 whole entry): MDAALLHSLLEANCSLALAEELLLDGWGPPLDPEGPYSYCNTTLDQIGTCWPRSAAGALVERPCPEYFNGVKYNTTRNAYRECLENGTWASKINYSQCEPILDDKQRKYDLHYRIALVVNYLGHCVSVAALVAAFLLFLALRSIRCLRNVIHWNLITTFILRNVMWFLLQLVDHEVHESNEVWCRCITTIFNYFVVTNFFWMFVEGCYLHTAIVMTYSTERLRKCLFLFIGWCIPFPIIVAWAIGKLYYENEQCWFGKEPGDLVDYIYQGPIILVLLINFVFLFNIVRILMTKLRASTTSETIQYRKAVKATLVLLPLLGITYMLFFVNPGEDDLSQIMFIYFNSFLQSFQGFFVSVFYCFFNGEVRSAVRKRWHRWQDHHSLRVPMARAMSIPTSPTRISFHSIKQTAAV
T1 sequence (P24387 whole entry): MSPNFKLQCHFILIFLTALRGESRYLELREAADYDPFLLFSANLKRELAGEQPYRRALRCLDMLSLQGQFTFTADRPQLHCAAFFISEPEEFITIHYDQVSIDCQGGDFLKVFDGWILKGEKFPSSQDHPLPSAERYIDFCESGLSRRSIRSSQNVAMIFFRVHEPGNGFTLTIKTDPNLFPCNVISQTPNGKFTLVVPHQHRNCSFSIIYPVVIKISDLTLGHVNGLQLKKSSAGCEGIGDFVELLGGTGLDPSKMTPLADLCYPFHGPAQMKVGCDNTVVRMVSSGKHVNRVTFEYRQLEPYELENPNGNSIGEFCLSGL
Put plainly: Dose Response confirmation of uHTS hits for small molecule antagonists of the CRF-binding protein and CRF-R2 receptor complex. The assay is classed as functional. Particulars: read-out: IC50_Mean.

Another assay has as its target Beta-galactosidase (Escherichia coli, UniProt Q8VNN2). The experiment in a line: Dose response counterscreen for EBI2 assay utilizing the enzyme, b-galactosidase. Format: functional. On the technique in general: The purpose of a counterscreen is to sort out artefacts and off-target activity.
In assay [4] the target is T1, Corticotropin-releasing factor receptor 2/Corticotropin-releasing factor-binding protein. Put plainly: activators of CRF receptor 2 with binding protein – uHTS hits, confirmation (AID 602473). Particulars: read-out: EC50_Mean. The assay is classed as functional.
Assay [5] can be described thus: cells.
The next assay concerns the target Major prion protein (Homo sapiens, UniProt P04156). Format: functional, cell-based.
Assay [6] is described as follows: A Cell-Based Confirmatory Screen for Compounds that Inhibit VEEV, TC-83 (8). The assay is classed as functional.
Another assay concerns Streptococcus. Put plainly: Group A Streptococcus viability loss, dose response, counter-screen for streptokinase expression inhibitor project, luminescence, BacTiterGlo (AID 1915).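 Note: potency for reduction of bacterial viability or growth.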 Format: functional, organism-based.
Assay [7] has as its system Streptococcus sp. 'group A'. Put plainly: growth inhibition of control SK(-) GAS strain, dose response, counter-screen for streptokinase expression inhibitor project, luminescence, kanamycin, BacTiterGlo, confirmation (AID 1900). Format: functional, organism-based.
For another assay, the target named is T2, Streptokinase A (Streptococcus pyogenes serotype M1, UniProt P10520).
T2 sequence (P10520 whole entry): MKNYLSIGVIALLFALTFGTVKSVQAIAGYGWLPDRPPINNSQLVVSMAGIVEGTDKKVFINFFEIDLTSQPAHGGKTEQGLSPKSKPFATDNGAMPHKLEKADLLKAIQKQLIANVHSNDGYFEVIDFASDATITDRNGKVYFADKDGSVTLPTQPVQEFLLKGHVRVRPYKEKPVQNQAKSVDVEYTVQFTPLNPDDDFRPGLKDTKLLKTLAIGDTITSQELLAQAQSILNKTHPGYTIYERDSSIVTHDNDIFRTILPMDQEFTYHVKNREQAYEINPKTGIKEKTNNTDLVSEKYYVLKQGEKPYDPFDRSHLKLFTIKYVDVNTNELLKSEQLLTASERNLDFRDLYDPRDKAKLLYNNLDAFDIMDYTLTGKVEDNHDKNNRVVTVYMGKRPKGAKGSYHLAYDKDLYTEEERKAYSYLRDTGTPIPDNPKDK
Put plainly: S. pyogenes streptokinase expression inhibitors, potency, dose response, plasminogen activation absorbance, OD405 (AID 1914).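 Note: secreted streptokinase activity via plasminogen activation per viability signal from cell pellet.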 The assay is classed as functional, Streptococcus pyogenes M1 GAS.

Assay [8] is described as follows: cells. As to conditions: HEK293.
Assay [9] addresses Metabotropic glutamate receptor 3 (Rattus norvegicus, UniProt P31422). Put plainly: mGlu3 NAM potency via calcium readout, dose response, mGlu3 NAM project, TREx293 cells, Galpha15, calcium flux (AID 651840). Format: functional. In general terms: Calcium flux is commonly read through the fluorescence of an indicator in the cells.
Another assay concerns the target SUMO-activating enzyme (Homo sapiens, UniProt Q9UBT2). Put plainly: SUMOylation inhibitor hit validation, confirmation, SUMOylation inhibitor project, biochemical, AlphaScreen (AID 2018). The assay is classed as functional. (In Alpha technology, singlet oxygen from a donor bead excites a nearby acceptor bead.)
Assay [10] in a line: cells. As to conditions: A549.
In assay [11] the target is Muscarinic acetylcholine receptor M5 (Homo sapiens, UniProt P08912). The experiment in a line: M5 muscarinic receptor antagonist potency, dose response, cell-based, CHO-K1 hM5, Fluo-4 calcium flux, ACh EC80 (AID 743110). The assay is classed as functional.

For `OC[C@@H]1CN(Cc2ccc(-c3ccccc3)cc2)C[C@H](n2cnc3c(NC4CCCC4)ncnc32)O1`, the EC50 in the assay “cells [1]” was > 29.9 µM (inactive). For the same compound, the figures for the IC50 (in assay [2]; on Galanin receptor type 3) were 6.28 µM (active) and 0.349 µM (active), respectively.
For `CSc1ccc(/C=C/C(=O)N2CCN(c3ccccn3)CC2)cc1`, the IC50 is > 47.1 µM (inactive) in assay [3] and > 80 µM (inactive) at Beta-galactosidase. The EC50 in assay [4] was > 53 µM (inactive).
In the case of `O=C(O)CSc1ncnc2scc(-c3ccccc3)c12`, the IC50 in “cells [5]” is > 138 µM (inactive); at Major prion protein, 5.04 µM (active).
For the compound `CCN1CCN(C(c2nc3ncc([N+](=O)[O-])cc3c(=O)n2-c2ccccc2)C(c2nc3ncc([N+](=O)[O-])cc3c(=O)n2-c2ccccc2)N2CCN(CC)CC2)CC1` (configuration not stated), in assay [6], the IC50 was 6.57 µM (active).
The term AC50 denotes the concentration at which the activity in the assay is half-maximal. `CC(C)(C)[C@H]1CCC(=O)N([C@H](CSc2ccccc2)Cc2ccccc2)CC1`: the EC50 was 10.3 µM (active) in the assay with Streptococcus, 7.1 µM (active) in assay [7] and 23.2 µM (active) at Streptokinase A. Further, the AC50 in the assay “cells [8]” was > 52 µM (inactive).
Broadly, the pIC50 is the IC50 on a negative log10 scale, so that one unit is a factor of ten. As to `COc1ccc(C#Cc2ccc(C(=O)N3CCCC(=O)C3)cc2)cc1`, the pIC50 in assay [9] is 5.57.
Turning to `Cn1cccc1/C=N/NC(=O)c1sc2cc(Cl)ccc2c1Cl`, the IC50 at SUMO-activating enzyme was > 100 µM (inactive). Also, the half-maximal activity concentration (AC50) in “cells [10]” was 43.7 µM (active).
Regarding `COC(=O)c1cccc(OCc2cc(C(=O)N(C)C(C)c3ccccn3)no2)c1` (configuration not stated), the IC50 in assay [11] is 11.1 µM (active).
